{
  "source": "patent US8614324B2",
  "about": "“Filamin A binding anti-inflammatory and analgesic” (priority 2008, dated 2013)",
  "molecular_target": "T1, mu opiate receptor (MOR) (Rattus norvegicus, UniProt P33535)",
  "T1 construct": "from tissue; host or cells: striatal membrane preparation (rat striatum)",
  "T1 sequence (P33535 whole entry)": "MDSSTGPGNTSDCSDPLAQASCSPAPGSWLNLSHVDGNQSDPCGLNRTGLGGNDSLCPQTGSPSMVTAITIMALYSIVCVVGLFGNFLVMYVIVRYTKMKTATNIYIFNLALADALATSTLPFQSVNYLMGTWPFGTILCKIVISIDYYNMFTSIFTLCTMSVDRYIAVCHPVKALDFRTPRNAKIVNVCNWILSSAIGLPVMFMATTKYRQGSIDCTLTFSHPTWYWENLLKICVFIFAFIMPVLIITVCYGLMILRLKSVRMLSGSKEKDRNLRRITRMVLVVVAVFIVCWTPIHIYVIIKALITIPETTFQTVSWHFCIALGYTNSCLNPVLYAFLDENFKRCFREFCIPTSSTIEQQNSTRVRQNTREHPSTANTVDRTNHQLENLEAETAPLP",
  "test": "MOR agonist activity, [35S]GTPγS binding assay using striatal membranes",
  "assay_type": "biochemical",
  "design": "MOR agonist activity, [35S]GTPγS binding to Gαo: reference not given here",
  "method": "To assess the mu opiate receptor (MOR) agonist activity of positive compounds from the FLNA screening, compounds were tested in a [^35S]GTPγS binding assay using striatal membranes.\nStriatal tissue was homogenized in 10 volumes of ice cold 25 mM HEPES buffer, pH 7.4, which contained 1 mM EGTA, 100 mM sucrose, 50 μg/ml leupeptin, 0.04 mM PMSF, 2 μg/ml soybean trypsin inhibitor and 0.2% 2-mercaptoethanol. The homogenates were centrifuged at 800×g for 5 minutes and the supernatants were centrifuged at 49,000×g for 20 minutes. The resulting pellets were suspended in 10 volume of reaction buffer, which contained 25 mM HEPES, pH 7.5, 100 mM NaCl, 50 μg/ml leupeptin, 2 μg/ml soybean trypsin inhibitor, 0.04 mM PMSF and 0.02% […].\nThe resultant striatal membrane preparation (200 μg) was admixed and maintained (incubated) at 30° C. for 5 minutes in reaction buffer as above that additionally contained 1 mM MgCl2 and 0.5 nM [^35S]GTPγS (0.1 μCi/assay, PerkinElmer Life and Analytical Sciences) in a total volume of 250 μl and continued for 5 minutes in the absence or presence of 0.1-10 μM of an assayed compound of interest. The reaction was terminated by dilution with 750 μl of ice-cold reaction buffer that contained 20 mM MgCl2 and 1 mM EGTA and immediate centrifugation at 16,000×g for 5 minutes.\nThe resulting pellet was solubilized by sonicating for 10 seconds in 0.5 ml of immunoprecipitation buffer containing 0.5% digitonin, 0.2% sodium cholate and 0.5% NP-40. Normal rabbit serum (1 μl) was added to 1 ml of lysate and incubated at 25° C. for 30 minutes. Nonspecific immune complexes were removed by incubation with 25 μl of protein A/G-conjugated agarose beads at 25° C. for 30 minutes followed by centrifugation at 5,000×g at 4° C. for 5 minutes. The supernatant was divided and separately incubated at 25° C. for 30 minutes with antibodies raised against Gαo proteins (1:1,000 dilutions).\nThe immunocomplexes so formed were collected by incubation at 25° C. for 30 minutes with 40 μl of agarose-conjugated protein A/G beads and centrifugation at 5,000×g at 4° C. for 5 minutes. The pellet was washed and suspended in buffer containing 50 mM Tris-HCl, pH 8.0, and 1% NP-40. The radioactivity in the suspension was determined by liquid scintillation spectrometry. […] DAMGO (H-Tyr-D-Ala-Gly-N-MePhe-Gly-OH; 1 or 10 μM) was used as a positive control.",
  "key": {"[1]": {"details": "0.1 μM compound, striatal membranes"}, "[2]": {"details": "1 μM compound + BFNA (1 μM β-funaltrexamine)"}, "[3]": {"details": "1 μM compound, striatal membranes"}},
  "data": [
    {"smiles": "O=C1CN(C2CCc3ccccc3C2)C2(CCN(S(=O)(=O)c3ccccc3)CC2)N1", "note": "(stereo not drawn) [C0136M(P5)]", "values": [
      {"measurement": "MOR agonist activity, [35S]GTPγS binding to Gαo", "setting": "[1]", "result": 176.8, "unit": "%"},
      {"measurement": "MOR agonist activity, [35S]GTPγS binding to Gαo", "setting": "[2]", "result": 74.5, "unit": "%"},
      {"measurement": "MOR agonist activity, [35S]GTPγS binding to Gαo", "setting": "[3]", "result": 237.3, "unit": "%"}
    ]},
    {"smiles": "O=C1CN(Cc2ccccc2)C2(CCN(C3CCCCC3)CC2)N1", "note": "[C0137M(P7)]", "values": [
      {"measurement": "MOR agonist activity, [35S]GTPγS binding to Gαo", "setting": "[1]", "result": 180.8, "unit": "%"},
      {"measurement": "MOR agonist activity, [35S]GTPγS binding to Gαo", "setting": "[2]", "result": 55.8, "unit": "%"},
      {"measurement": "MOR agonist activity, [35S]GTPγS binding to Gαo", "setting": "[3]", "result": 193.8, "unit": "%"}
    ]},
    {"smiles": "COc1ccc(S(=O)(=O)N2CCC3(CC2)NCCO3)cc1", "note": "[Compound C0026]", "values": [
      {"measurement": "MOR agonist activity, [35S]GTPγS binding to Gαo", "setting": "[1]", "result": 207.2, "unit": "%"},
      {"measurement": "MOR agonist activity, [35S]GTPγS binding to Gαo", "setting": "[2]", "result": 21.2, "unit": "%"},
      {"measurement": "MOR agonist activity, [35S]GTPγS binding to Gαo", "setting": "[3]", "result": 288.4, "unit": "%"}
    ]},
    {"smiles": "COc1ccc(S(=O)(=O)N2CCOC23CCNCC3)cc1", "note": "[Compound C0027]", "values": [
      {"measurement": "MOR agonist activity, [35S]GTPγS binding to Gαo", "setting": "[1]", "result": 233.2, "unit": "%"},
      {"measurement": "MOR agonist activity, [35S]GTPγS binding to Gαo", "setting": "[2]", "result": 72.2, "unit": "%"},
      {"measurement": "MOR agonist activity, [35S]GTPγS binding to Gαo", "setting": "[3]", "result": 313.9, "unit": "%"}
    ]},
    {"smiles": "O=[N+]([O-])c1ccc(S(=O)(=O)N2CCC3(CC2)NCCO3)cc1", "note": "[Compound C0040]", "values": [
      {"measurement": "MOR agonist activity, [35S]GTPγS binding to Gαo", "setting": "[1]", "result": 145.8, "unit": "%"},
      {"measurement": "MOR agonist activity, [35S]GTPγS binding to Gαo", "setting": "[2]", "result": 90.4, "unit": "%"},
      {"measurement": "MOR agonist activity, [35S]GTPγS binding to Gαo", "setting": "[3]", "result": 308.3, "unit": "%"}
    ]},
    {"smiles": "O=[N+]([O-])c1ccc(S(=O)(=O)N2CCC3(CC2)NCCS3)cc1", "note": "[Compound C0044]", "values": [
      {"measurement": "MOR agonist activity, [35S]GTPγS binding to Gαo", "setting": "[1]", "result": 173.7, "unit": "%"},
      {"measurement": "MOR agonist activity, [35S]GTPγS binding to Gαo", "setting": "[2]", "result": 59.1, "unit": "%"},
      {"measurement": "MOR agonist activity, [35S]GTPγS binding to Gαo", "setting": "[3]", "result": 280.1, "unit": "%"}
    ]},
    {"smiles": "CC(=O)c1ccc(S(=O)(=O)N2CCOC23CCNCC3)cc1", "note": "[Compound C0046]", "values": [
      {"measurement": "MOR agonist activity, [35S]GTPγS binding to Gαo", "setting": "[1]", "result": 286.2, "unit": "%"},
      {"measurement": "MOR agonist activity, [35S]GTPγS binding to Gαo", "setting": "[2]", "result": 156.8, "unit": "%"},
      {"measurement": "MOR agonist activity, [35S]GTPγS binding to Gαo", "setting": "[3]", "result": 492.9, "unit": "%"}
    ]},
    {"smiles": "CC(=O)N1CCSC12CCN(S(=O)(=O)c1ccc([N+](=O)[O-])cc1)CC2", "note": "[Compound C0050]", "values": [
      {"measurement": "MOR agonist activity, [35S]GTPγS binding to Gαo", "setting": "[1]", "result": 110.3, "unit": "%"},
      {"measurement": "MOR agonist activity, [35S]GTPγS binding to Gαo", "setting": "[2]", "result": 59.0, "unit": "%"},
      {"measurement": "MOR agonist activity, [35S]GTPγS binding to Gαo", "setting": "[3]", "result": 127.6, "unit": "%"}
    ]},
    {"smiles": "CC(=O)c1ccc(S(=O)(=O)N2CCC3(CC2)OCCN3S(C)(=O)=O)cc1", "note": "[Compound C0056]", "values": [
      {"measurement": "MOR agonist activity, [35S]GTPγS binding to Gαo", "setting": "[1]", "result": 98.6, "unit": "%"},
      {"measurement": "MOR agonist activity, [35S]GTPγS binding to Gαo", "setting": "[2]", "result": 86.3, "unit": "%"},
      {"measurement": "MOR agonist activity, [35S]GTPγS binding to Gαo", "setting": "[3]", "result": 193.4, "unit": "%"}
    ]},
    {"smiles": "CC(=O)c1ccc(S(=O)(=O)N2CCC3(CC2)NCCS3)cc1", "note": "[Compound C0060]", "values": [
      {"measurement": "MOR agonist activity, [35S]GTPγS binding to Gαo", "setting": "[1]", "result": 166.5, "unit": "%"},
      {"measurement": "MOR agonist activity, [35S]GTPγS binding to Gαo", "setting": "[2]", "result": 143.9, "unit": "%"},
      {"measurement": "MOR agonist activity, [35S]GTPγS binding to Gαo", "setting": "[3]", "result": 218.9, "unit": "%"}
    ]},
    {"smiles": "CC(=O)c1ccc(S(=O)(=O)N2CC(=O)NC23CCNCC3)cc1", "note": "[Compound C0086M]", "values": [
      {"measurement": "MOR agonist activity, [35S]GTPγS binding to Gαo", "setting": "[1]", "result": 206.8, "unit": "%"},
      {"measurement": "MOR agonist activity, [35S]GTPγS binding to Gαo", "setting": "[2]", "result": 152.3, "unit": "%"},
      {"measurement": "MOR agonist activity, [35S]GTPγS binding to Gαo", "setting": "[3]", "result": 265.3, "unit": "%"}
    ]},
    {"smiles": "CC(=O)c1ccc(S(=O)(=O)N2CCC3(CC2)NC(=O)CO3)cc1", "note": "[Compound C0087M]", "values": [
      {"measurement": "MOR agonist activity, [35S]GTPγS binding to Gαo", "setting": "[1]", "result": 262.8, "unit": "%"},
      {"measurement": "MOR agonist activity, [35S]GTPγS binding to Gαo", "setting": "[2]", "result": 142.5, "unit": "%"},
      {"measurement": "MOR agonist activity, [35S]GTPγS binding to Gαo", "setting": "[3]", "result": 329.6, "unit": "%"}
    ]},
    {"smiles": "COc1ccc(S(=O)(=O)N2CCOC23CCN(C)CC3)cc1", "note": "[Compound C0088M]", "values": [
      {"measurement": "MOR agonist activity, [35S]GTPγS binding to Gαo", "setting": "[1]", "result": 276.3, "unit": "%"},
      {"measurement": "MOR agonist activity, [35S]GTPγS binding to Gαo", "setting": "[2]", "result": 177.1, "unit": "%"},
      {"measurement": "MOR agonist activity, [35S]GTPγS binding to Gαo", "setting": "[3]", "result": 355.3, "unit": "%"}
    ]},
    {"smiles": "CCN1CCC2(CC1)OCCN2S(=O)(=O)c1ccc(OC)cc1", "note": "[Compound C0089M]", "values": [
      {"measurement": "MOR agonist activity, [35S]GTPγS binding to Gαo", "setting": "[1]", "result": 234.5, "unit": "%"},
      {"measurement": "MOR agonist activity, [35S]GTPγS binding to Gαo", "setting": "[2]", "result": 81.9, "unit": "%"},
      {"measurement": "MOR agonist activity, [35S]GTPγS binding to Gαo", "setting": "[3]", "result": 295.3, "unit": "%"}
    ]},
    {"smiles": "COc1ccc(S(=O)(=O)N2CCOC23CCN(CC2CC2)CC3)cc1", "note": "[Compound C0090M]", "values": [
      {"measurement": "MOR agonist activity, [35S]GTPγS binding to Gαo", "setting": "[1]", "result": 237.0, "unit": "%"},
      {"measurement": "MOR agonist activity, [35S]GTPγS binding to Gαo", "setting": "[2]", "result": 41.0, "unit": "%"},
      {"measurement": "MOR agonist activity, [35S]GTPγS binding to Gαo", "setting": "[3]", "result": 341.0, "unit": "%"}
    ]},
    {"smiles": "C=CCN1CCC2(CC1)OCCN2S(=O)(=O)c1ccc(OC)cc1", "note": "[Compound C0091M]", "values": [
      {"measurement": "MOR agonist activity, [35S]GTPγS binding to Gαo", "setting": "[1]", "result": 207.9, "unit": "%"},
      {"measurement": "MOR agonist activity, [35S]GTPγS binding to Gαo", "setting": "[2]", "result": 80.8, "unit": "%"},
      {"measurement": "MOR agonist activity, [35S]GTPγS binding to Gαo", "setting": "[3]", "result": 274.4, "unit": "%"}
    ]},
    {"smiles": "CC(=O)c1ccc(S(=O)(=O)N2CCOC23CCN(C)CC3)cc1", "note": "[Compound C0093M]", "values": [
      {"measurement": "MOR agonist activity, [35S]GTPγS binding to Gαo", "setting": "[1]", "result": 140.0, "unit": "%"},
      {"measurement": "MOR agonist activity, [35S]GTPγS binding to Gαo", "setting": "[2]", "result": 44.0, "unit": "%"},
      {"measurement": "MOR agonist activity, [35S]GTPγS binding to Gαo", "setting": "[3]", "result": 211.8, "unit": "%"}
    ]}
  ]
}
